Publication PMC11953117 (Cancer Chemotherapy and Pharmacology, 2025)
Like-named read-outs stand apart in the source and are kept apart here.

How the values were obtained:
[1] = Capivasertib exposure metrics at steady state projected with PopPK model, patients with solid tumors; assay type: in vivo; settings: human, plasma, oral; for AUC: read-out: AUCss(0–12 h); for concentration at 12 h: read-out: Cmin
Protocol: Study 1 (NCT01226316) was a phase 1 open-label multipart study. […] The duration of the treatment cycles was 21 days. […] [18]. […] [18, 25, 39].
Study 4 (NCT01353781) was a phase 1 dose-escalation study in Japanese patients with advanced solid malignancies.
(§1) The exposure–response analyses were conducted using a subset of patients from the PopPK analysis where capivasertib was used as monotherapy. […] As different schedules were assessed between and within studies, the exposure metrics were derived for the last dose of the last dosing day in the second week of treatment (i.e. on days 14, 11, and 9 for the continuous, [4/3] and [2/5] schedules, respectively), to ensure SS conditions, using the planned dose. […] The relative dose intensity (RDI) was calculated as the percentage of the average weekly dose relative to the PWD to examine the tolerability of capivasertib monotherapy at the given dosing schedules.

[2] = Relative dose intensity (RDI) of capivasertib monotherapy; assay type: in vivo, human
Protocol: as §1

[3] = Exposure–response analysis (logistic regression) of safety endpoints; assay type: in vivo, human
Protocol: as §1
Logistic regression models were used to establish associations between the probability of the safety endpoints with the exposure metrics at a statistically significant level of 0.005.

[4] = cited from earlier work
[5] = parameters: method as in PMID 29066505, PMID 26931343; settings: monotherapy, cited from earlier work; for recommended phase 2 dose: based on DLTs
AKT = test system: AKT; parameters: method as in PMID 29066505; settings: 480 mg BID [4/3] versus 320 mg continuous dosing; cited from earlier work
[6] = 640 mg, Study 1, [2/5] BID, 640 mg, PWD 2560 mg, N=8, median (range)
[7] = 640 mg, Study 1, [2/5] BID, PWD 2560 mg, N=8, median (range)
[8] = 640 mg, Study 1, [4/3] BID, 640 mg, PWD 5120 mg, N=10, median (range)
[9] = 640 mg, Study 1, [4/3] BID, PWD 5120 mg, N=10, median (range)
[10] = 640 mg, Study 4 (Japanese patients), [2/5] BID, 640 mg, PWD 2560 mg, N=6, median (range)
[11] = 640 mg, Study 4 (Japanese patients), [2/5] BID, PWD 2560 mg, N=6, median (range)
[12] = 800 mg, Study 1, [2/5] BID, 800 mg, PWD 3200 mg, N=14, median (range)
[13] = 800 mg, Study 1, [2/5] BID, PWD 3200 mg, N=14, median (range)
[14] = univariate logistic regression, significance level 0.005

## NC1(C(=O)N[C@@H](CCO)c2ccc(Cl)cc2)CCN(c2ncnc3[nH]ccc23)CC1 [capivasertib, 4-amino-N-[(1S)-1-(4-chlorophenyl)-3-hydroxypropyl]-1-(7H-pyrrolo[2,3-d]pyrimidin– 4-yl)piperidine-4-carboxamide]
[1]; 600 mg, Study 1, Continuous BID, PWD 8400 mg, N=2, median (range)
  Cmax: 2520 ng/mL
[1]; [6]
  AUC: 15000 ng·h/mL
  concentration at 12 h: 570 ng/mL
[1]; [7]
  AUC at 1 week: 59800 ng·h/mL
  Cmax: 2080 ng/mL
[1]; [8]
  AUC: 15900 ng·h/mL
  concentration at 12 h: 550 ng/mL
[1]; [9]
  AUC at 1 week: 127000 ng·h/mL
  Cmax: 2430 ng/mL
[1]; [10]
  AUC: 15200 ng·h/mL
  concentration at 12 h: 570 ng/mL
[1]; [11]
  AUC at 1 week: 61000 ng·h/mL
  Cmax: 2480 ng/mL
[1]; [12]
  AUC: 26400 ng·h/mL
  concentration at 12 h: 1080 ng/mL
[1]; [13]
  AUC at 1 week: 106000 ng·h/mL
  Cmax: 3930 ng/mL
[2]; OAK, [4/3] BID, 480 mg, PWD 3840 mg, N=30, median (range)
  RDI: 100 (45.6–115.4) %
[2]; Study 1, Continuous BID, 80 mg, PWD 1120 mg, N=5, median (range)
  RDI: 100.0 (95.9–100.6) %
[2]; Study 1, Continuous BID, 160 mg, PWD 2240 mg, N=5, median (range)
  RDI: 97.6 (83.5–102.3) %
[2]; Study 1, Continuous BID, 240 mg, PWD 3360 mg, N=6, median (range)
  RDI: 100.3 (98.8–100.9) %
[2]; Study 1, Continuous BID, 320 mg, PWD 4480 mg, N=12, median (range)
  RDI: 98.1 (37.2–102.4) %
[2]; Study 1, Continuous BID, 400 mg, PWD 5600 mg, N=11, median (range)
  RDI: 80.3 (55.4–102.1) %
[2]; Study 1, Continuous BID, 480 mg, PWD 6720 mg, N=6, median (range)
  RDI: 50.2 (45.3–83.3) %
[2]; Study 1, Continuous BID, 600 mg, PWD 8400 mg, N=2, median (range)
  RDI: 103.1 (100–106.2) %
[2]; Study 1, [2/5] BID, 640 mg, PWD 2560 mg, N=8, median (range)
  RDI: 94.0 (80.9–109.1) %
[2]; Study 1, [2/5] BID, 800 mg, PWD 3200 mg, N=14, median (range)
  RDI: 101.1 (42.5–133.3) %
[2]; Study 1, [4/3] BID, 480 mg, PWD 3840 mg, N=127, median (range)
  RDI: 97.9 (26.4–138.9) %
[2]; Study 1, [4/3] BID, 640 mg, PWD 5120 mg, N=10, median (range)
  RDI: 100.0 (70.5–122.2) %
[2]; Study 4 (Japanese patients), Continuous BID, 80 mg, PWD 1120 mg, N=3, median (range)
  RDI: 100.0 (88.7–102.3) %
[2]; Study 4 (Japanese patients), Continuous BID, 240 mg, PWD 3360 mg, N=7, median (range)
  RDI: 100.0 (41.9–106.7) %
[2]; Study 4 (Japanese patients), Continuous BID, 320 mg, PWD 4480 mg, N=6, median (range)
  RDI: 91.5 (59.3–101.1) %
[2]; Study 4 (Japanese patients), Continuous BID, 400 mg, PWD 5600 mg, N=5, median (range)
  RDI: 72.1 (51.4–85.7) %
[2]; Study 4 (Japanese patients), [2/5] BID, 640 mg, PWD 2560 mg, N=6, median (range)
  RDI: 111.2 (100–119) %
[2]; Study 4 (Japanese patients), [4/3] BID, 360 mg, PWD 2880 mg, N=8, median (range)
  RDI: 107.9 (91.4–112) %
[2]; Study 4 (Japanese patients), [4/3] BID, 480 mg, PWD 3840 mg, N=6, median (range)
  RDI: 107.9 (79.1–108.6) %
[2]; [4/3] and [2/5] schedules at all dose levels
  RDI: > 90%
[2]; continuous schedule, 400 and 480 mg doses
  RDI: ≤ 80%
[3]; [2/5] 640 mg compared with [4/3] 480 mg
  probability of hyperglycemia AE grade ≥ 3 and increased blood glucose > 13.9 mmol/L: higher probability
[3]; at a given dose
  probabilities of hyperglycemia AE grade ≥ 3 and increased blood glucose > 13.9 mmol/L: effect of schedule: did not depend on the schedule
[3]; at a given dose, intermittent schedules compared with continuous, statistically significant
  probability of AEDD, AEDM and diarrhea AE grade ≥ 2: effect of schedule: lower probability of events
[3]; at a given weekly dose, intermittent schedules compared with continuous, statistically significant
  probability of hyperglycemia AE grade ≥ 3 and increased blood glucose > 13.9 mmol/L: effect of schedule: higher probability of events
[3]; continuous 320 mg (4480 mg weekly) compared with [4/3] 480 mg (3840 mg weekly)
  probability of rash AE grade ≥ 2, AEDD, AEDM, AE grade ≥ 3, SAE and diarrhea AE grade ≥ 2: higher
[3]; logistic regression, significance level 0.005
  relationships between exposure metrics and AE grade ≥ 1: No significant relationships
[3]; [14]
  exposure metrics with significant relationship to AE grade ≥ 3: dose, PWD, AUC, AUCPWD, Cmax, and Cmin
  exposure metrics with significant relationship to AE leading to dose discontinuation: PWD
  exposure metrics with significant relationship to AE leading to dose modification: PWD, AUC, AUCPWD, Cmax, and Cmin
  exposure metrics with significant relationship to SAE: dose, PWD, AUC, AUCPWD, Cmax, and Cmin
  exposure metrics with significant relationship to diarrhea AE grade ≥ 2: PWD, AUCPWD
  exposure metrics with significant relationship to hyperglycemia AE grade ≥ 3: dose, AUC, AUCPWD, Cmax, and Cmin
  exposure metrics with significant relationship to increased blood glucose > 13.9 mmol/L: dose, AUC, AUCPWD, Cmax, and Cmin
  exposure metrics with significant relationship to rash AE grade ≥ 2: PWD
[4]; dose range of 80–480 mg
  dose proportionality of plasma exposure: approximately dose proportional
[4]; patients
  half-life: approximately 8 h
[5]; [2/5] schedule
  recommended phase 2 dose: 640 mg BID
[5]; [4/3] schedule
  recommended phase 2 dose: 480 mg BID
[5]; continuous schedule
  recommended phase 2 dose: 320 mg BID
[5]; first-in-human study
  dose-limiting toxicities (DLTs): diarrhea, rash, and hyperglycemia
AKT
  target engagement in tumor tissue: greater target engagement
